Experiments:
GhJMT2 = biological target: T1, GhJMT2 (Gossypium hirsutum, UniProt A0A2K9REX3); test: GC-MS product detection, recombinant E. coli supernatant; format: biochemical; settings: SAM 1 uL of 100 mM, KCl, 25 °C, 30 min; empty vector control; product MeJA
T1 construct: gene JMT2; cloning primers encode MEVVQVL... ...PMDVFLF (derived)
T1 sequence (A0A2K9REX3 1-372): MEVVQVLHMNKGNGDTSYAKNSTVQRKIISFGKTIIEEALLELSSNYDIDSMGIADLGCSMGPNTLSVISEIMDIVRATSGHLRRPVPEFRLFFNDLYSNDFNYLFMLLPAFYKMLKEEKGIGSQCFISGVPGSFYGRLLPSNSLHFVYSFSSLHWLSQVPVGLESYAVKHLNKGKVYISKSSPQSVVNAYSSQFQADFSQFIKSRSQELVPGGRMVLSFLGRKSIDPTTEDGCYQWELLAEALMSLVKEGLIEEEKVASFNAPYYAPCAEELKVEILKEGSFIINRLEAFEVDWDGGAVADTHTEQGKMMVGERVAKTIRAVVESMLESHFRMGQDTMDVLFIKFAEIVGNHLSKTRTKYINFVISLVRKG

GhJMT1 = biological target: T2, GhJMT1 (Gossypium hirsutum, UniProt A0ACM8RG93); test: as above; format: biochemical; settings: SAM 1 uL of 100 mM, KCl, 25 °C, 30 min; empty vector control; product MeJA
T2 construct: gene JMT1; cloning primers encode MQVLHMN... ...ALTKKW (derived)
T2 sequence (A0ACM8RG93 1-371): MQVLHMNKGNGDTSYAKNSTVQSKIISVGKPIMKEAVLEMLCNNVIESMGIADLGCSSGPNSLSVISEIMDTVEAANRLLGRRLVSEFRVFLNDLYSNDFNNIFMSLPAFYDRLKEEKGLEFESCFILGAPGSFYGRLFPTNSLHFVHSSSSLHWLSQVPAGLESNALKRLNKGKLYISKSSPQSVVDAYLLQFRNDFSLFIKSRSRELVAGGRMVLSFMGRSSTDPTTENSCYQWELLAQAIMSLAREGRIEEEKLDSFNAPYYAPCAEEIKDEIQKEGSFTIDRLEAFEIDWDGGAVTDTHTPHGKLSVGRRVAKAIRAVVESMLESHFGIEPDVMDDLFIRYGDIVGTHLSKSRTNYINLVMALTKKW

SMILES: CC/C=C\C[C@H]1C(=O)CC[C@@H]1CC(=O)O [jasmonic acid]
- GC-MS product detection, recombinant E. coli supernatant (GhJMT2): recombinant GhJMT1 and GhJMT2 were both responsible for the conversion of JA to MeJA
- GC-MS product detection, recombinant E. coli supernatant (GhJMT1): recombinant GhJMT1 and GhJMT2 were both responsible for the conversion of JA to MeJA

From paper PMC10508841, “Two jasmonic acid carboxyl methyltransferases in Gossypium hirsutum involved in MeJA biosynthesis may contribute to plant defense” (Frontiers in Plant Science, 2023)
